Measured values from patent publication US6680025B2, “Device and method for photoactivation” (Cerus Corporation, priority 1989, dated 2004).

Legend:
Assay type in all cases: biochemical
Taq polymerase = Taq polymerase (Thermus aquaticus, UniProt P19821); assay: Taq primer extension of 71-mer after random addition of compound or photoproduct; conditions: for extension of 71-mer irradiated with compound: AMIP 200 μg/ml, AMDMIP 200 μg/ml, irradiated 15 minutes CE-I at 25° C.
Text: In this experiment, the ability of AMIP, AMDMIP and MIF to block replication of 71-mer is investigated by randomly adding each compound to the 71-mer. Of course, addition may only be random in the sense that one or more adducts may be formed with any one strand of nucleic acid. The actual placement of the isopsoralen may be governed by preferential binding at particular sites (e.g. A:T). In addition to blockage by random adducts, photoproducts of the various isopsoralens may be providing an inhibitory effect. No attempt to separate the effects of photoproduct from the effects of covalent adducts on the 71-mer template was made in this series of experiments.
In these experiments, the 71-mer template (10^−9 M) was primed with ^32P-SK-39 (10^−8) and extended with Taq polymerase in a total volume of […]. The dNTP concentration was 200 μM. In the control samples, the 71-mer, the primer, and the dNTPs were mixed in Taq buffer in a volume of 18 p1. These samples were initially denatured at 95° C. for 5 minutes, followed by equilibration at 55° C. for 3 minutes. Taq enzyme was then added (0.5 units) and the extension reaction was carried out for 5 minutes at 55° C. The reaction was stopped by making the solution 10 mM in EDTA. In another set of samples, the 71-mer in 10 μl was mixed with either AMIP (200 μg/ml), AMDMIP (200 μg/ml), or MIP (60 μg/ml). Half of these samples were irradiated for 15 minutes on the CE-I device at 25° C. The other half was kept in the dark as controls. These samples were then mixed with the primer and dNTPs as before, and were subjected to the same thermal profile and extension reactions as the samples that were described earlier. The results were examined by PAGE. The extended product bands were identified by autoradiography, excised and counted (data not shown). […]
71-mer was made up in Taq buffer. Samples were prepared as follows: 1) dark control samples were not subjected to activating light; 2) 10 μl samples of the 71-mer (2×10^−9 M) were irradiated in the presence of 200 μg/ml AMDMIP, and 3) 10 μl samples of a 200 μg/ml solution of AMDMIP were irradiated in the absence of the 71-mer target. All irradiations were carried out with the CE-I device at 25° C. After preparing the above samples, unirradiated AMDMIP was added to one set of the dark control samples. Another set of dark controls received irradiated AMDMIP. ^32P-SK-39 primer and dNTPs were then added to all samples and the volume was adjusted to 18 μl. These samples were denatured at 95° C. for 5 minutes, followed by equilibration at 55° C. for 3 minutes. Taq polymerase was then added and the extension reaction was carried out for 5 minutes. The reaction was stopped by bringing the samples to 10 mM in EDTA. The final concentrations of all reagents during the extension reactions were: […]

Reverse Transcriptase = assay: Primer extension on monoadducted 71-mer, reverse transcriptase; conditions: 37° C., 0, 5 or 15 minutes
T4 polymerase = assay: Primer extension on monoadducted 71-mer, T4 polymerase; conditions: 37° C., 0, 5 or 15 minutes
Text: The sequences that are presented in FIG. 26 describe several oligonucleotides that are used in the synthesis of either a normal 71-mer or the identical 71-mer containing a site-specifically placed psoralen or isopsoralen monoadduct. The 71-mer is a sub-sequence of the Human Immunodeficiency Virus (HIV) sequence. (An HIV DNA system is described in a co-pending application, Serial No. 225,725.) SK-39 is a primer oligonucleotide that is complementary to the 3′ end of the 71-mers. This primer oligonucleotide can be extended on the 71-mer template to make a complementary strand of the 71-mer.
Preparation of 71-mers which contain site-specific monoadducts involves 1) preparation of different 15-mer monoadducts from the same unmodified 15-mer (HRI-42), and 2) ligation of the different 15-mer monoadducts to the same 56-mer “extender oligonucleotide” (HRI 102) using a 25-mer oligonucleotide (HRI-45) as a splint. The arrows in FIG. 27 indicate the direction of synthesis, while the monoadduct is indicated by a short line that is perpendicular to the oligomer. While each of the 71-mer monoadducts contains the adduct at a base position that is greater than 56 bases from the 5′ end, the precise position of the monoadduct is not meant to be indicated.
To prepare the 15-mer adducts, the 15-mer was incubated with a complementary 10-mer along with psoralen or isopsoralen under hybridization conditions. The mixture was then irradiated to provide the monoadducted 15-mer. While the invention is not dependent on knowing the precise mechanism of coupling, it has generally been believed that the 10-mer directs the isopsoralen to a single TpA site within the double-stranded helix formed by the 10-mer/15-mer hybrid. […]
To provide highly purified 71-mers which contain a single monoadduct, it was necessary to provide highly purified 15-mer monoadduct prior to the ligation step. […] Separation of 15-mer monoadduct from unmodified 15-mer was readily accomplished by PAGE (while the same technique is not effective for separation of the corresponding unmodified 71-mer and monoadducted 71-mer sequences). […]

Sequence of Taq polymerase (P19821 whole entry): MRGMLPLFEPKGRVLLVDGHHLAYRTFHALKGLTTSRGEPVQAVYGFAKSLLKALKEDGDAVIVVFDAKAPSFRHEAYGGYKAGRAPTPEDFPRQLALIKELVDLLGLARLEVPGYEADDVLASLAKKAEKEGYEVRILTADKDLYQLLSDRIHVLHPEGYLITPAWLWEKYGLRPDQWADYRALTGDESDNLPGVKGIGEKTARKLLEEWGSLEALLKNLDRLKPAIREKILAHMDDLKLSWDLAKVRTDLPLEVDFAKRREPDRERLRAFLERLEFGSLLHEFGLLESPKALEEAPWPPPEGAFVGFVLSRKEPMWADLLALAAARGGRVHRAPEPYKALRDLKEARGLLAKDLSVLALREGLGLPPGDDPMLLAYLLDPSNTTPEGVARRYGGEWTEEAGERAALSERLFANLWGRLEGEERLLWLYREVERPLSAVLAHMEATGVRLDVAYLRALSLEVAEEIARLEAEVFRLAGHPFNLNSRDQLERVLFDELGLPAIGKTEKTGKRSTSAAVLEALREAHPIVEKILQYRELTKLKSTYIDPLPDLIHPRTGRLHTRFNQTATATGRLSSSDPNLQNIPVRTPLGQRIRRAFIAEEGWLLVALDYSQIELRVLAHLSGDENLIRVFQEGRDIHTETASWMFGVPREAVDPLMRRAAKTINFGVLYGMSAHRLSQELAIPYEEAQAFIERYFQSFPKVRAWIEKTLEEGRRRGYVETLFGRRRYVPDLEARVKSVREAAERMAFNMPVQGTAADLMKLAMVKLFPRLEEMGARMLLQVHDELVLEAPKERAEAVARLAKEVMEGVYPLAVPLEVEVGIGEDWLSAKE

| Compound | extension of 71-mer irradiated in the presence of AMDMIP (Taq polymerase; 200 μg/ml during irradiation, CE-I at 25° C.) | extension of 71-mer, dark control with unirradiated AMDMIP (Taq polymerase; AMDMIP 100 μg/ml final) | extension of 71-mer irradiated with compound (Taq polymerase; MIP 60 μg/ml) | block of primer extension by 71-mer monoadduct (Reverse Transcriptase) | block of primer extension by 71-mer monoadduct (T4 polymerase) | amount of full length product versus control samples (Taq polymerase; MIP 60 μg/ml, irradiated 15 minutes CE-I) |
| --- | --- | --- | --- | --- | --- | --- |
| Cc1oc2ccc3c(C)cc(=O)oc3c2c1CN [AMDMIP, 4′-Aminomethyl-4,5′-dimethylisopsoralen] | no extension products at all | full length extension product | not extended at all | complete stop | complete stop | – |
| NCc1cc2occc2c2oc(=O)ccc12 [AMIP, 5-Aminomethylisopsoralen] | – | – | not extended at all | complete stops | complete stops | – |
| Cc1cc2occc2c2oc(=O)ccc12 [MIP, 5-Methylisopsoralen] | – | – | some full length extension product and a minor truncated product | complete stops | complete stops | half of that observed with the control samples |
